Results reported in PMC9540496 (Clinical Pharmacology and Therapeutics, 2022).
Marks after values point to notes of the source that are not given here. Values belong to the compound of their own block, whether it stands above or below them.

Legend:
[1] = cited from earlier work
[2] = Phase I crossover DDI study: rosuvastatin; assay type: in vivo, human
[3] = tested on: P‐gp; test: Anticipated effect of abrocitinib on digoxin, not formally evaluated; conditions: assuming complete P‐gp inhibition
[4] = Static perpetrator DDI risk assessment; conditions: for Theoretical gut concentration (Igut): 200 mg/250 mL
[5] = Safety across the three phase I pharmacokinetic studies; assay type: in vivo, human
[6] = clinical; conditions: both, human, plasma, oral, 500 mg
[7] = Phase I crossover DDI study: metformin; conditions: metformin 500 mg alone; median (range)
[8] = Endogenous biomarkers NMN; assay type: in vivo, human; conditions: for Tmax: median (range)
[9] = Phase I crossover DDI study: dabigatran etexilate; assay type: in vivo, human
[10] = rosuvastatin 10 mg ± abrocitinib 200 mg QD
[11] = both, human, plasma, oral, 75 mg
[12] = dabigatran etexilate 75 mg + abrocitinib 200 mg vs alone
[13] = dabigatran etexilate 75 mg ± abrocitinib 200 mg single dose

plasma exposure and CLr on co‐administration with abrocitinib ([2]; 90% CIs within acceptance range of 80–125%): unaffected
AUC(0-inf) ([2]; both, human, plasma, oral, 10 mg): 57.6 ng·h/mL
CL renal ([2]; both, human, urine and plasma, oral, 10 mg): 243 mL/min
Cmax ([2]; rosuvastatin 10 mg alone, geometric mean (geometric %CV)): 5.38 (53) ng/mL
AUCinf ratio of abrocitinib + substrate vs. substrate alone AGm (90% CI) [2, 10]: 1.02 (0.93–1.12) ^c
CLr ratio of abrocitinib + substrate vs. substrate alone AGm (90% CI) [2, 10]: 0.91 (0.83–1.01) ^c
Cmax ratio of abrocitinib + substrate vs. substrate alone AGm (90% CI) [2, 10]: 0.99 (0.86–1.14) ^c
Compound: CC(C)c1nc(N(C)S(C)(=O)=O)nc(-c2ccc(F)cc2)c1/C=C/[C@@H](O)C[C@@H](O)CC(=O)O [Rosuvastatin, rosuvastatin]
increase of rosuvastatin AUC with ABCG2 421A/A vs. wild‐type ([1]; ABCG2 (BCRP) polymorphism): ~ 2 fold
parent drug recovered in urine ([1]; after oral dosing): 10%

anticipated maximum increase in digoxin AUC [3]: ≤ 30%
absorption rate constant (ka) [4]: 0.067 min⁻¹
fraction absorbed (fafg) [4]: 0.91
Theoretical gut concentration (Igut) [4]: 0.8 mg/mL
Theoretical gut concentration (Igut) ([4]; MW 323.4): 2.47 mM
0.1 × molar dose/250 mL ([4]; cutoff for intestinal transporters, 200 mg dose): 247 µM
50 × Cmax,u ([4]; cutoff for systemic transporters, unbound steady-state Cmax): 65 µM
Theoretical liver inlet concentration (Iin,max,u) ([4]; fu × (Cmax + ((fafg × ka × Dose/Qh)/B/P))): 9.1 µM
Compound: CCCS(=O)(=O)N[C@H]1C[C@@H](N(C)c2ncnc3[nH]ccc23)C1 [abrocitinib, Abrocitinib]
serious or severe adverse events ([5]; all three pharmacokinetic studies, abrocitinib 200 mg with probe drugs): No serious or severe adverse events
tolerability ([5]; co‐administered with a single oral dose of dabigatran etexilate, rosuvastatin, or metformin, healthy volunteers): well‐tolerated

AUC(0-inf) [6]: 5200 ng·h/mL
Cmax [6]: 721 ng/mL
Tmax [7]: 4.00 (1.00–4.00) hour
Compound: CN(C)C(=N)N=C(N)N [Metformin, metformin]

Compound: C=C[C@H]1C[N@@]2CC[C@H]1C[C@@H]2[C@@H](O)c1ccnc2ccc(OC)cc12 [quinidine]
increase of dabigatran exposures ([1]; P‐gp interaction, dabigatran labeling): 50–60%

Compound: CCCN(CCC)S(=O)(=O)c1ccc(C(=O)O)cc1 [probenecid]
decrease in CLr of rosuvastatin or furosemide in the presence of probenecid ([1]; OAT3 index inhibitor, approximate five‐fold): ~80%

AUC24 ratio of abrocitinib + metformin vs. metformin alone AGm (90% CI) ([8]; IBC): 0.95 (0.85–1.05) ^c
Cmax ratio of abrocitinib + metformin vs. metformin alone AGm (90% CI) ([8]; IBC): 0.95 (0.85–1.06) ^c
AUC24 ([8]; IBC in plasma, metformin 500 mg alone, geometric mean (geometric %CV), N = 12): 1187 (56) ng•hour/mL
Cmax ([8]; IBC, abrocitinib 200 mg + metformin 500 mg, geometric mean (geometric %CV)): 56.6 (55) ng/mL
Tmax ([8]; IBC, abrocitinib 200 mg + metformin 500 mg): 14.0 (0.00–23.8) hour
effect of abrocitinib co‐administration with metformin on AUC24 or Cmax ([8]; IBC, compared with metformin alone): did not alter
Cmax ([8]; IBC, metformin 500 mg alone, geometric mean (geometric %CV)): 59.7 (56) ng/mL
Tmax ([8]; IBC, metformin 500 mg alone): 16.0 (0.00–23.8) hour
Compound: CC(C)C(=O)O[C@H](CC(=O)[O-])C[N+](C)(C)C [IBC, isobutyryl‐L‐carnitine]

increase of plasma exposure on co‐administration with abrocitinib ([9]; abstract statement): ~ 50%
Cmax [9, 11]: 30.2 ng/mL
half-life [9, 11]: 8.93 ± 2.28 h
increase of AUCinf on co‐administration with abrocitinib [9, 12]: 53%
increase of Cmax on co‐administration with abrocitinib [9, 12]: 40%
AUCinf ratio of abrocitinib + substrate vs. substrate alone AGm (90% CI) [9, 13]: 1.53 (1.09–2.15)
Cmax ratio of abrocitinib + substrate vs. substrate alone AGm (90% CI) [9, 13]: 1.40 (0.92–2.13)
Compound: [H]/N=C(/N)c1ccc(NCc2nc3cc(C(=O)N(CCC(=O)O)c4ccccn4)ccc3n2C)cc1 [Dabigatran, dabigatran]

Compound: C[C@H]1O[C@@H](O[C@H]2[C@@H](O)C[C@H](O[C@H]3[C@@H](O)C[C@H](O[C@H]4CC[C@@]5(C)[C@H](CC[C@@H]6[C@@H]5C[C@@H](O)[C@]5(C)[C@@H](C7=CC(=O)OC7)CC[C@]65O)C4)O[C@@H]3C)O[C@@H]2C)C[C@H](O)[C@@H]1O [digoxin]
absolute bioavailability [1]: 75–78%
